Results from PubChem BioAssay AID1259407 (Chemical Carcinogenesis Research Information System (CCRIS), 2018).
Calls of active or inactive are those of the source. No rule for the calls is given here.

System: CCRIS mutagenicity, Ames/micronucleus/aberration tests
Experiment: CCRIS mutagenicity studies
Settings: Test System: AMES SALMONELLA TYPHIMURIUM, Method: PREINCUBATION
[1] = Strain/Indicator: TA98, Metabolic Activation: NONE
[2] = Strain/Indicator: TA100, Metabolic Activation: NONE

Measured: mutagenic call

O=C1C=C(S(=O)(=O)O)c2ccccc2C1=O
active: [2] active; positive | Strain/Indicator: TA104, Metabolic Activation: NONE active; positive | Strain/Indicator: TA2637, Metabolic Activation: NONE active; positive
inactive: Strain/Indicator: TA97, Metabolic Activation: NONE inactive; negative | Strain/Indicator: TA97, Metabolic Activation: RAT, LIVER, S-9, PHENOBARBITAL AND 5,6-BENZOFLAVONE inactive; negative | [1] inactive; negative | Strain/Indicator: TA98, Metabolic Activation: RAT, LIVER, S-9, PHENOBARBITAL AND 5,6-BENZOFLAVONE inactive; negative | Strain/Indicator: TA100, Metabolic Activation: RAT, LIVER, S-9, PHENOBARBITAL AND 5,6-BENZOFLAVONE inactive; negative | Strain/Indicator: TA102, Metabolic Activation: NONE inactive; negative | Strain/Indicator: TA102, Metabolic Activation: RAT, LIVER, S-9, PHENOBARBITAL AND 5,6-BENZOFLAVONE inactive; negative | Strain/Indicator: TA104, Metabolic Activation: RAT, LIVER, S-9, PHENOBARBITAL AND 5,6-BENZOFLAVONE inactive; negative | Strain/Indicator: TA1535, Metabolic Activation: NONE inactive; negative | Strain/Indicator: TA1535, Metabolic Activation: RAT, LIVER, S-9, PHENOBARBITAL AND 5,6-BENZOFLAVONE inactive; negative | Strain/Indicator: TA1537, Metabolic Activation: NONE inactive; negative | Strain/Indicator: TA1537, Metabolic Activation: RAT, LIVER, S-9, PHENOBARBITAL AND 5,6-BENZOFLAVONE inactive; negative | Strain/Indicator: TA1538, Metabolic Activation: NONE inactive; negative | Strain/Indicator: TA1538, Metabolic Activation: RAT, LIVER, S-9, PHENOBARBITAL AND 5,6-BENZOFLAVONE inactive; negative | Strain/Indicator: TA2637, Metabolic Activation: RAT, LIVER, S-9, PHENOBARBITAL AND 5,6-BENZOFLAVONE inactive; negative

O=[N+]([O-])c1ccc(Nc2ncnc3nc[nH]c23)cc1
inactive: Strain/Indicator: TA98(1,8-DNP), Metabolic Activation: NONE inactive; negative | Strain/Indicator: TA98(1,8-DNP), Metabolic Activation: RAT, LIVER, S-9, PCB inactive; negative | Strain/Indicator: TA98(NR), Metabolic Activation: NONE inactive; negative | Strain/Indicator: TA98(NR), Metabolic Activation: RAT, LIVER, S-9, PCB inactive; negative | [1] inactive; negative | Strain/Indicator: TA98, Metabolic Activation: RAT, LIVER, S-9, PCB inactive; negative | Strain/Indicator: TA100(1,8-DNP), Metabolic Activation: NONE inactive; negative | Strain/Indicator: TA100(1,8-DNP), Metabolic Activation: RAT, LIVER, S-9, PCB inactive; negative | Strain/Indicator: TA100(NR), Metabolic Activation: NONE inactive; negative | Strain/Indicator: TA100(NR), Metabolic Activation: RAT, LIVER, S-9, PCB inactive; negative | [2] inactive; negative | Strain/Indicator: TA100, Metabolic Activation: RAT, LIVER, S-9, PCB inactive; negative | Strain/Indicator: YG1020, Metabolic Activation: NONE inactive; negative | Strain/Indicator: YG1020, Metabolic Activation: RAT, LIVER, S-9, PCB inactive; negative | Strain/Indicator: YG1021, Metabolic Activation: NONE inactive; negative | Strain/Indicator: YG1021, Metabolic Activation: RAT, LIVER, S-9, PCB inactive; negative | Strain/Indicator: YG1024, Metabolic Activation: NONE inactive; negative | Strain/Indicator: YG1024, Metabolic Activation: RAT, LIVER, S-9, PCB inactive; negative | Strain/Indicator: YG1025, Metabolic Activation: NONE inactive; negative | Strain/Indicator: YG1025, Metabolic Activation: RAT, LIVER, S-9, PCB inactive; negative | Strain/Indicator: YG1026, Metabolic Activation: NONE inactive; negative | Strain/Indicator: YG1026, Metabolic Activation: RAT, LIVER, S-9, PCB inactive; negative | Strain/Indicator: YG1029, Metabolic Activation: NONE inactive; negative | Strain/Indicator: YG1029, Metabolic Activation: RAT, LIVER, S-9, PCB inactive; negative
